In patent publication US7803803B2, “Tetrahydrofuro[3,2-B] pyrrol-3-ones as cathepsin K inhibitors” (Amura Therapeutics Limited, priority 2007, dated 2010):
Where two headings read alike, the source gives them in different places.

Columns and labels:
[1] = tested on: human osteoclasts; experiment: Human osteoclast resorption assay; assay type: cell-based
Method: Bone resorption was studied using a model where human osteoclast precursor cells were cultured on bovine bone slices for 9 days and allowed to differentiate into bone-resorbing osteoclasts. The formed mature osteoclasts were then allowed to resorb bone. The assay was performed by Pharmatest Services Ltd, Itäinen Pitkakatu 4C, Turku, Finland. After the culture period, bone collagen degradation products were quantified from the culture medium as an index of bone resorption. Inhibitor compounds were added into the cell cultures after the differentiation period and their effects on the resorbing activity of mature osteoclasts were determined. The studies included a baseline group without added compounds and a positive control group where a potent cathepsin K inhibitor E-64 was added.
Human peripheral blood monocytes were suspended to culture medium and allowed to attach to bovine bone slices. The bone slices were transferred into 96-well tissue culture plates containing culture medium with appropriate amounts of important growth factors favouring osteoclast differentiation, including M-CSF, RANK-ligand and TGF-[…]. The cells were incubated in a CO2 incubator in humidified atmosphere of 95% air and 5% carbon dioxide at 37° C. At day 7 when osteoclast differentiation was complete, the culture medium was replaced with culture medium containing conditions favouring osteoclast activity. The cell culture was continued for an additional 2 days, during which the formed mature osteoclasts were allowed to resorb bone in the presence of vehicle, control inhibitor (E64) or test compounds. At the end of the culture, bone collagen degradation products released into the culture medium were determined using a commercially available ELISA method (CrossLaps® for culture, Nordic Bioscience, Herlev, Denmark) as an index of bone resorption (see Bagger, Y. Z. et al, J. Bone. Miner. Res. 14 (suppl. 1), S370).

[2] = Plasma incubations (human plasma stability); assay type: in vitro ADME; conditions: 37° C. Note: tested at 25 µM.
Method: Aliquots were removed at 2 and 60 minutes and quenched with an equal volume of cold acetonitrile. After mixing vigorously, the precipitated protein matter was removed by filtration (Multiscreen Solvinert filter plates, Millipore, Bedford, Mass., USA) and the filtrate analysed by reverse phase HPLC with mass spectrometric detection, using single ion monitoring of the [M+H]^+ species. Metabolic turnover was determined by comparison of peak areas from the ion chromatograms of the parent compound at 2 and 60 minutes and expressed as percent remaining at 1 hour.

[3] = LogD determinations; assay type: physicochemical; conditions: Ion-count method; for logD at 1 h: 1-octanol/phosphate buffered saline, pH 7.4, pH 7.4
Method: LogD(PBS) determinations were performed in 96 well microtitre plates using a miniaturised “shake-flask” method. […] The plates were then capped and mixed vigorously for 1 hour on a microtitre plate shaker, after which they were left to stand, allowing the PBS and octanol phases to separate. The PBS layer was analysed by reverse phase HPLC with mass spectrometric detection, using single ion monitoring of the [M+H]^+ species.
Where AUCstd and AUCpbs are the peak areas from the standard and test ion chromatograms respectively.

[4] = molecular target: T1, cathepsin K (Homo sapiens, UniProt P43235); experiment: In vitro cathepsin Ki inhibition measurements; assay type: biochemical; set-up: purchased B. Turk, Josef Stefan Institute, Ljubljana, Slovenia
T1 sequence (P43235 115-329): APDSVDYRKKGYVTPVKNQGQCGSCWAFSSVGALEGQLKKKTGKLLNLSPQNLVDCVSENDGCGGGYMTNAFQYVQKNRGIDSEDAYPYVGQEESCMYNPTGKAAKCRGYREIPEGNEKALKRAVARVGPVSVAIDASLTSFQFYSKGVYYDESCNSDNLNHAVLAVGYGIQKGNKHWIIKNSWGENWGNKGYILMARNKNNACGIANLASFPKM
Method: Stock solutions of substrate or inhibitor were made up to 10 mM in 100% dimethylsulfoxide (DMSO) (Rathburns, Glasgow, U.K.) and diluted as appropriately required. In all cases the DMSO concentration in the assays was maintained at less than 1% (vol./vol.). The equilibrium inhibition constants (Ki^SS) for each compound were measured under steady-state conditions monitoring enzyme activity as a function of inhibitor concentration. The values were calculated on the assumption of pure competitive behaviour (Cornish-Bowden, A. Fundamentals of enzyme kinetics Portland Press; 1995, 93-128). Human recombinant cathepsin K (0.25 nM final; B. Turk, Josef, Stefan Institute, Ljubljana, Slovenia), was routinely assayed in 100 mM sodium acetate; pH 5.5 containing 1 mM EDTA, 10 mM L-cysteine and 1.8 μM Z-Leu-Arg-AMC ([S]═KM).
The apparent inhibition constant (Ki) for each compound was determined on the basis that inhibition was reversible and occurred by a pure-competitive mechanism. The Ki values were calculated, from the dependence of enzyme activity as a function of inhibitor concentration, by direct regression analysis (Prism v 3.02) using Equation 2 (Cornish-Bowden, A., 1995).
In situations where the apparent dissociation constant (Ki^app) approached the enzyme concentrations, the Ki^app values were calculated using a quadratic solution in the form described by Equation 3 (Morrison, J. F. Trends Biochem. Sci., 7, 102-105, 1982; Morrison, J. F. Biochim. Biophys. Acta, 185, 269-286, 1969; Stone, S. R. and Hofsteenge, J. Biochemistry, 25, 4622-4628, 1986).
Curves were fitted by non-linear regression analysis (Prism) using a fixed value for the enzyme concentration. Equation 4 was used to account for the substrate kinetics, where ‘Ki’ is the inhibition constant, ‘[So]’ is the initial substrate concentration and ‘KM^app’ is the apparent macroscopic binding (Michaelis) constant for the substrate (Morrison, 1982).

[5] = human recombinant cathepsin K, read-out: In vitro Ki (nM) vs Cath K
[6] = prior art examples of WO-A-02057270, recombinant human cathepsin K, read-out: Ki (nM) vs Human Cathepsin K

Row | Compound | Human Plasma Stability % rem. @ 1 h [2] [%] | Ki [4, 5] [nM] | Ki [4, 6] [nM] | also measured
1 | CO[C@H]1CN(C(=O)[C@@H](NC(=O)c2ccc(N3CCN(C)CC3)cc2)C2CCCC2)[C@@H]2C(=O)CO[C@H]12 | 93.6 | 1.8 | – | IC50 ([1]; read-out: Cell-based Human IC50): 52 nM; logD at 1 h [3]: 1.36
2 | CCN1CCN(c2ccc(C(=O)N[C@H](C(=O)N3C[C@H](OC)[C@H]4OCC(=O)[C@H]43)C3CCCC3)cc2)CC1 | 90.9 | 3.6 | – | logD at 1 h [3]: 1.59
3 | N—((S)-1-((3aS,6R,6aS)-6-methoxy-3-oxodihydro-2H-furo[3,2-b]pyrrol-4(5H,6H,6aH)-yl)-4-methyl-1-oxopentan-2-yl)-4-(4-methylpiperazin-1-yl)benzamide [Example 3] | – | – | > 4000 | –
4 | CCN1CCN(c2ccc(C(=O)N[C@@H](CC(C)C)C(=O)N3C[C@@H](OC)[C@H]4OCC(=O)[C@H]43)cc2)CC1 [Example 7, 4-(4-ethylpiperazin-1-yl)-N—((S)-1-((3aS,6R,6aS)-6-methoxy-3-oxodihydro-2H-furo[3,2-b]pyrrol-4(5H,6H,6aH)-yl)-4-methyl-1-oxopentan-2-yl)benzamide] | 93 | 9.9 | – | inhibition at 1 µM ([1]; Homo sapiens, Osteoclast, 48 h, 1 □ M, read-out: Cell-based % Inh. @ 1 □ M Human): 63 to 88%; logD at 1 h [3]: > 0.8; LogD pH 7.4 [3]: 0.89
5 | 4-(4-ethylpiperazin-1-yl)-N—((S)-1-((3aS,6S,6aS)-6-methoxy-3-oxodihydro-2H-furo[3,2-b]pyrrol-4(5H,6H,6aH)-yl)-4-methyl-1-oxopentan-2-yl)benzamide [Example 5] | – | – | > 100000 | –
6 | N—((S)-1-((3aS,6S,6aR)-6-amino-3-oxodihydro-2H-furo[3,2-b]pyrrol-4(5H,6H,6aH)-yl)-4-methyl-1-oxopentan-2-yl)-4-(4-(2-methoxyethyl)piperazin-1-yl)benzamide [Example 23] | – | – | > 3000 | –
7 | CCCN1CCN(c2ccc(C(=O)N[C@@H](CC(C)C)C(=O)N3C[C@H](OC)[C@H]4OCC(=O)[C@H]43)cc2)CC1 [Example 13, N—((S)-1-((3aS,6S,6aS)-6-methoxy-3-oxodihydro-2H-furo[3,2-b]pyrrol-4(5H,6H,6aH)-yl)-4-methyl-1-oxopentan-2-yl)-4-(4-propylpiperazin-1-yl)benzamide] | 93 | 3.9 | – | LogD pH 7.4 [3]: 1.64
8 | N—((S)-1-((3aS,6S,6aS)-6-methoxy-3-oxodihydro-2H-furo[3,2-b]pyrrol-4(5H,6H,6aH)-yl)-4,4-dimethyl-1-oxopentan-2-yl)-4-(4-methylpiperazin-1-yl)benzamide [Example 2] | – | – | > 50000 | –
9 | N—((S)-1-((3aS,6R,6aS)-6-methoxy-3-oxodihydro-2H-furo[3,2-b]pyrrol-4(5H,6H,6aH)-yl)-4,4-dimethyl-1-oxopentan-2-yl)-4-(4-methylpiperazin-1-yl)benzamide [Example 4] | – | – | > 100000 | –
10 | N—((S)-1-((3aS,6S,6aS)-6-methoxy-3-oxodihydro-2H-furo[3,2-b]pyrrol-4(5H,6H,6aH)-yl)-4-methyl-1-oxopentan-2-yl)-4-(4-methylpiperazin-1-yl)benzamide [Example 1] | – | – | > 20000 | –
11 | N—((S)-1-((3aS,6R,6aS)-6-methoxy-3-oxodihydro-2H-furo[3,2-b]pyrrol-4(5H,6H,6aH)-yl)-4,4-dimethyl-1-oxopentan-2-yl)-4-(1-propylpiperidin-4-yl)benzamide [Example 38] | – | – | > 4000 | –
12 | 4-(4-ethylpiperazin-1-yl)-N—((S)-1-((3aS,6R,6aS)-6-methoxy-3-oxodihydro-2H-furo[3,2-b]pyrrol-4(5H,6H,6aH)-yl)-4-methyl-1-oxopentan-2-yl)benzamide [Example 7] | – | – | > 15000 | –
13 | N—((S)-1-((3aS,6R,6aS)-6-hydroxy-3-oxodihydro-2H-furo[3,2-b]pyrrol-4(5H,6H,6aH)-yl)-4-methyl-1-oxopentan-2-yl)-4-(4-(2-methoxyethyl)piperazin-1-yl)benzamide [Example 26] | – | – | > 8000 | –
14 | CO[C@@H]1CN(C(=O)[C@H](CC(C)C)NC(=O)c2ccc(N3CCN(C)CC3)cc2)[C@@H]2C(=O)CO[C@@H]21 [Example 3, N—((S)-1-((3aS,6R,6aS)-6-methoxy-3-oxodihydro-2H-furo[3,2-b]pyrrol-4(5H,6H,6aH)-yl)-4-methyl-1-oxopentan-2-yl)-4-(4-methylpiperazin-1-yl)benzamide] | 87 | 15.1 | – | LogD pH 7.4 [3]: 0.42
15 | N—((S)-1-((3aS,6R,6aR)-6-amino-3-oxodihydro-2H-furo[3,2-b]pyrrol-4(5H,6H,6aH)-yl)-4-methyl-1-oxopentan-2-yl)-4-(4-(2-methoxyethyl)piperazin-1-yl)benzamide [Example 24] | – | – | > 2000 | –
16 | 4-(4-ethylpiperazin-1-yl)-N—((S)-1-((3aS,6S,6aS)-6-methoxy-3-oxodihydro-2H-furo[3,2-b]pyrrol-4(5H,6H,6aH)-yl)-4,4dimethyl-1-oxopentan-2-yl)benzamide [Example 6] | – | – | > 20000 | –
17 | CCN1CCN(c2ccc(C(=O)N[C@@H](CC(C)(C)C)C(=O)N3C[C@H](OC)[C@H]4OCC(=O)[C@H]43)cc2)CC1 [Example 6, 4-(4-ethylpiperazin-1-yl)-N—((S)-1-((3aS,6S,6aS)-6-methoxy-3-oxodihydro-2H-furo[3,2-b]pyrrol-4(5H,6H,6aH)-yl)-4,4dimethyl-1-oxopentan-2-yl)benzamide] | 100 | 5.1 | – | logD at 1 h [3]: > 0.8; LogD pH 7.4 [3]: 1.46
18 | COCCN1CCN(c2ccc(C(=O)N[C@@H](CC(C)C)C(=O)N3C[C@@H](N)[C@H]4OCC(=O)[C@H]43)cc2)CC1 [Example 24, N—((S)-1-((3aS,6R,6aR)-6-amino-3-oxodihydro-2H-furo[3,2-b]pyrrol-4(5H,6H,6aH)-yl)-4-methyl-1-oxopentan-2-yl)-4-(4-(2-methoxyethyl)piperazin-1-yl)benzamide] | 96 | 3.5 | – | logD at 1 h [3]: 0.01 to 0.76; LogD pH 7.4 [3]: 0.01
19 | N—((S)-1-((3aS,6S,6aS)-6-methoxy-3-oxodihydro-2H-furo[3,2-b]pyrrol-4(5H,6H,6aH)-yl)-4-methyl-1-oxopentan-2-yl)-4-(4-(2-methoxyethyl)piperazin-1-yl)benzamide [Example 27] | – | – | > 20000 | –
20 | N—((S)-1-((3aS,6R,6aS)-6-methoxy-3-oxodihydro-2H-furo[3,2-b]pyrrol-4(5H,6H,6aH)-yl)-4-methyl-1-oxopentan-2-yl)-4-(4-(2-methoxyethyl)piperazin-1-yl)benzamide [Example 28] | – | – | > 2500 | –
21 | CCCN1CCN(c2ccc(C(=O)N[C@@H](CC(C)(C)C)C(=O)N3C[C@H](OC)[C@H]4OCC(=O)[C@H]43)cc2)CC1 [Example 14, N—((S)-1-((3aS,6S,6aS)-6-methoxy-3-oxodihydro-2H-furo[3,2-b]pyrrol-4(5H,6H,6aH)-yl)-4,4-dimethyl-1-oxopentan-2-yl)-4-(4-propylpiperazin-1-yl)benzamide] | 98 | 8.6 | – | LogD pH 7.4 [3]: 1.74
